Measured values taken from patent US20040072211A1, “Methods for identifying ligands using waterlogsy NMR” (PHARMACIA & UPJOHN COMPANY, priority 2002, published 2004).
Read-outs that look alike come from different tables or passages of the source.

Key:
[1] = biological target: T1, Human Serum Albumin (HSA) (Homo sapiens, UniProt P02768); experiment: biochemical; details: for Interaction with HSA by ITC binding heat effects: 30 μM protein, 1.5 mM ligand
Procedure: FIG. 3. Isothermal titration calorimetry (ITC) data measured on the binding of tryptophan analogues to HSA. […] Dilution heats were collected in blank titrations and were subtracted from the data. […] The solid line represents a calculated curve using the best-fit parameters obtained by a nonlinear least-squares fit to the measured data.
ITC Experiments. […] Heats of dilution were measured in blank titrations by injecting the […] into the buffer used in the particular experiment and were subtracted from the binding heats. Thermodynamic parameters were determined by non-linear least squares methods using routines included in the Origin software package (MicroCal).

[2] = biological target: T1, Human Serum Albumin (HSA); experiment: One-dimensional WaterLOGSY NMR spectra of methyl-tryptophan derivatives with HSA; assay type: binding; parameters: purchased Sigma A-3782; details: 50 μM compound, 5 μM HSA, PBS pH 7.4, 293 K
Procedure: FIG. 2. […] Positive and negative signals identify HSA binding and noninteracting molecules, respectively.
Diazepam was purchased from Carlo Erba. The NMR samples were in phosphate buffered saline (PBS) buffer (Sigma) pH 7.4. D2O was added to the solutions (8% final concentration) for the lock signal.
(§1) NMR Experiments. […] For each sample a reference spectrum and a ID WaterLOGSY spectrum were recorded. […] The 1st water selective 180° pulse was 25 milliseconds (ms) long. A weak rectangular PFG is applied during the entire length of the mixing time (1.5 seconds (s)). A short gradient recovery time of 2 ms was introduced at the end of the mixing time before the detection pulse. […] The gradient recovery time was 0.2 s. […] Prior to Fourier transformation the data were multiplied with an exponential function with a line broadening of 1 Hz.
Therefore in an effort to identify a potential reference molecule, three methyl-tryptophan derivatives, namely 5-CH3, 6-CH3, and 7-CH3 Trp, were selected.

[3] = biological target: T1, Human Serum Albumin (HSA); experiment: c-WaterLOGSY competition binding experiment, displacement of reference compound 6-CH3 Trp from HSA; parameters: purchased Sigma A-3782
Procedure: as §1

[4] = biological target: Human Serum Albumin (HSA) site II (Homo sapiens, UniProt P02768); details: literature knowledge; cited from earlier work
Human Serum Albumin (HSA) site II, sequence (P02768 25-609): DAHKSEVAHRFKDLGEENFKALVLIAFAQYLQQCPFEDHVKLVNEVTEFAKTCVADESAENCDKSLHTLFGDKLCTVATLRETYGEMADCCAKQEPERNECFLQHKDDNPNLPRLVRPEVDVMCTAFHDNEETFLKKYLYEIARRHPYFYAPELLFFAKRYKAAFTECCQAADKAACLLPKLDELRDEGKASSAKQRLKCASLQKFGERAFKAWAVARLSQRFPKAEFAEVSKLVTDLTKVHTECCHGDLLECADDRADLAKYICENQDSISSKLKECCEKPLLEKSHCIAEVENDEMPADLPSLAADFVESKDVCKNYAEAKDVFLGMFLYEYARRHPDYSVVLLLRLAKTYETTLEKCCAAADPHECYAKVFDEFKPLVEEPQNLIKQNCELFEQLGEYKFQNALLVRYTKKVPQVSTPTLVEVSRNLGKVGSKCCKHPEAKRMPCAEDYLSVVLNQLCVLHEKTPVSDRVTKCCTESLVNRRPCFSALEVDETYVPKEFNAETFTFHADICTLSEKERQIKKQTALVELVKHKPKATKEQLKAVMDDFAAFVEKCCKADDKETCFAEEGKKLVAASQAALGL

T1 sequence (P02768 25-609): as above

Cc1ccc2[nH]cc(CC(N)C(=O)O)c2c1 (racemic) [5-CH3 Trp, 5-CH3-D,L-Trp]
Interaction with HSA by ITC binding heat effects ([1]; PBS, 298 K): No net binding heat effects | Interaction with HSA by sign of WaterLOGSY signal (positive = binding, negative = noninteracting) [2]: do not interact with the protein

Cc1ccc2c(CC(N)C(=O)O)c[nH]c2c1 (racemic) [6-CH3 Trp, 6-CH3-D,L-Trp]
Kd [1]: 37 µM | association binding constant (KB) [1]: 2.7±0.2 10^4 Mol^−1 | Interaction with HSA by ITC binding heat effects ([1]; PBS, 298 K): negative binding heats were observed | ΔH^obs ([1]; ITC, 298 K, PBS): 1.9 ± 0.1 kcal/mol | ΔS ([1]; ITC, 298 K, PBS): 13.79 cal/(mol K) | Interaction with HSA by sign of WaterLOGSY signal (positive = binding, negative = noninteracting) [2]: ligand for HSA

Cc1cccc2c(CC(N)C(=O)O)c[nH]c12 (racemic) [7-CH3 Trp, 7-CH3-D,L-Trp]
Interaction with HSA by ITC binding heat effects ([1]; PBS, 298 K): No net binding heat effects | Interaction with HSA by sign of WaterLOGSY signal (positive = binding, negative = noninteracting) [2]: do not interact with the protein | Signal intensity change of the 6-CH3 Trp reference WaterLOGSY signal in presence of the competitor ([3]; 10 μM competitor, 50 μM 6-CH3 D,L Trp, 5 μM HSA): No signal intensity change

OC[C@H]1O[C@@](CO)(O[C@H]2O[C@H](CO)[C@@H](O)[C@H](O)[C@H]2O)[C@@H](O)[C@@H]1O [Sucrose]
Signal intensity change of the 6-CH3 Trp reference WaterLOGSY signal in presence of the competitor [3]: No signal intensity change

N[C@@H](Cc1c[nH]c2ccccc12)C(=O)O [tryptophan]
Binding site on HSA [4]: binds also on site II of HSA
